Several values for one entry are separate records, joined by “and”; a condition that tells them apart may be missing. Identical values can stand only once.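 In this assay, cells in 96-well plates receive the compound at five concentrations for 48 hours. Endpoints are linearly interpolated between the surrounding concentrations. The concentration for 50% growth inhibition is given as GI50. TGI: total growth inhibition.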

Experiment in all cases: NCI tumour cell line growth inhibition, 48 h
For experiment [1], the system named is SF-295 CNS.
In experiment [2] the test system is RXF 393 renal.
Experiment [3] concerns BT-549 breast.
The test system of experiment [4] is MDA-MB-231 breast.
In experiment [5] the test system is NCI-H460 lung.
Experiment [6] concerns TK-10 renal.
Experiment [7] relates to CAKI-1 renal.
In experiment [8] the test system is COLO 205 colon.
Experiment [9] concerns SK-MEL-5 melanoma.
Experiment [10] deals with NCI/ADR-RES ovarian.

`CCOC(=O)CN1C(=O)c2ccc(NC(=O)C(=O)O)cc2S1(=O)=O`: the TGI in experiment [1], in [2], in [3], in [4], in experiment [5] and in [6] was greater than 100 µM each time. The TGI in experiment [7], in experiment [8], in [9] and in experiment [10] was greater than 100 µM throughout.
Regarding `O=C(O)C(NCc1ccccc1)C(NCc1ccccc1)C(=O)O` (stereo unspecified), the TGI in experiment [1], in [3], in [4], in experiment [5], in experiment [6] and in experiment [7] was greater than 100 µM throughout. The TGI in [8], in experiment [9] and in experiment [10] was greater than 100 µM in each case.
For `CN1CCN(C(=S)N2CCN(C)CC2)CC1`, the TGI in experiment [1] was greater than 100 µM; in experiment [2], greater than 100 µM; in experiment [3], greater than 100 µM; in [4] it was greater than 100 µM; in experiment [5], greater than 21.8 µM; in experiment [6], greater than 100 µM. Besides, the TGI is greater than 100 µM in experiment [7], 9.45 µM in experiment [8], greater than 100 µM in [9] and greater than 100 µM in [10].
In the case of `CN(C)CCCC12CCCCC1=Nc1ccccc12` (stereo unspecified), the TGI in experiment [1], in experiment [2], in experiment [3], in experiment [4], in experiment [5] and in experiment [6] was greater than 100 µM each time. Moreover, the TGI in [7], in experiment [8], in experiment [9] and in experiment [10] was greater than 100 µM each time.
As for `Nc1nc(N)c2c3c(cnc2n1)CC(c1ccccc1)CC3` (stereo unspecified), the TGI in experiment [1] is greater than 100 µM; in experiment [2], 47.9 µM; in experiment [3], 81.8 µM; in [4] it was 96.8 µM; in experiment [5] it was greater than 100 µM; in [6], 97.9 µM. The TGI in experiment [7], in experiment [8], in [9] and in [10] was greater than 100 µM in each case.
Consider `NC(=O)C(C(N)=O)=C(O)C(=O)/C=C(\O)c1ccccc1`, for which the TGI in experiment [1], in [2], in [3], in [4], in [5] and in [6] was greater than 100 µM in each case. Further, the TGI in experiment [7], in [8], in experiment [9] and in experiment [10] was greater than 100 µM throughout.
For the compound `Cn1c(=O)c2c(nc(Cc3ccccc3)n2CC(=O)O)n(C)c1=O`, the TGI in [1], in [2], in experiment [3], in experiment [4], in experiment [5] and in [6] was greater than 100 µM each time. Moreover, the TGI in [7], in experiment [9] and in [10] was greater than 100 µM each time.
With `O=c1cc(-c2cccc3ccccc23)[nH]c2ncccc12`, the TGI in experiment [1] was greater than 100 µM; in experiment [3] it was greater than 100 µM; in experiment [4], greater than 100 µM; in experiment [5] it was greater than 100 µM; in experiment [7] it was greater than 100 µM; in experiment [8], 0.0587 µM and 0.136 µM. The TGI in experiment [10] is greater than 100 µM. Besides, the GI50 in experiment [2] is 11.9 µM; in experiment [4], 0.0479 µM; in experiment [5] it was 0.0392 µM; in experiment [10], 0.0173 µM.
For `Cn1ccc(C(=O)NCCN(CCNC(=O)c2ccn(C)c(=O)c2O)CCNC(=O)c2cccc(=O)n2O)c(O)c1=O`, the TGI in [1], in [2], in [3], in experiment [4], in [5] and in experiment [7] was greater than 100 µM throughout. The TGI in experiment [8], in experiment [9] and in [10] was greater than 100 µM each time.
On to `N#Cc1c(N)nc2n[nH]c(N)c2c1-c1ccc(Cl)cc1`, for which the TGI in [1] is 42.7 µM; in [2] it was 7.26 µM; in [3], 12.7 µM; in [4], 10.4 µM; in [5] it was greater than 96.7 µM; in experiment [7] it was 29.3 µM. Moreover, the TGI was greater than 100 µM in experiment [8], greater than 81.1 µM in experiment [9] and 61.6 µM in experiment [10].
As for `CC1CCC(C(C)C)C(OC(=O)NCn2cc(-c3ccccc3)nn2)C1` (stereo unspecified), the TGI in [1], in [3], in experiment [4], in experiment [5], in experiment [6] and in [7] was greater than 100 µM throughout. Further, the TGI in [8], in experiment [9] and in [10] was greater than 100 µM in each case.
In the case of `O=[N+]([O-])c1ccc2c(c1)C1=C(CO2)Cc2ccccc2O1`, the TGI in experiment [1] was greater than 100 µM; in experiment [3], 61.9 µM; in experiment [4] it was 51.4 µM; in [6], 57 µM; in [7], 31.4 µM; in experiment [8] it was 30.6 µM. In addition, the TGI in [9] was 29.7 µM; in [10], greater than 100 µM.
`CCCCNC(=S)Nc1nc(C(=O)NNC(=S)Nc2ccccc2)cs1`: the TGI in experiment [1] was greater than 100 µM; in experiment [3] it was greater than 100 µM; in [4] it was 87.2 µM; in experiment [5] it was greater than 100 µM; in experiment [6] it was greater than 100 µM; in experiment [7], greater than 100 µM. For the same compound, the TGI in experiment [8], in experiment [9] and in experiment [10] was greater than 100 µM each time.
On to `COc1ccc(-[n+]2nc(S(=O)(=O)O)c(/C=C/c3ccc(N(C)C)cc3)cc2C#N)cc1`, for which the TGI in experiment [1], in [3], in experiment [4], in [6], in experiment [7] and in experiment [8] was greater than 100 µM throughout. The TGI in [9] and in experiment [10] was greater than 100 µM throughout.

Source of the values: PubChem BioAssay (NCI).
